Values after ≈ are worked out from the molar mass of the structure shown. Blank lines part the entries; values can stand above or below the molecule they belong to.
Columns and labels:
[1] = test system: phorbol ester induced ear edema in ICR mice; test: Phorbol ester induced ear edema test; assay type: in vivo
Method: Phorbol Ester Induced Ear Edema Test
The effect of Zileuton-containing formulations on phorbol ester induced ear edema in ICR mice was evaluated. One hundred and twenty (120) female ICR mice were assigned to eleven (11) groups by randomization with BioBook software to achieve similar mean weight and right ear thickness baseline among groups. Mice were terminated by 95% CO2 asphyxiation and then cervical dislocation.
Totally nine (9) Zileuton-containing formulations which are SO13, SO17, WB6, Gel-10, Gel-11, LO3, LO13, SPC19 and Zileuton 1.0% cream were selected for the tests Dexamethasone were used for the reference and Acetone was treated to the vehicle group.
Mice were anesthetized with 2-5 isoflurane. The mice were sensitized by painting 5 μg of phorbol ester dissolved in 0.02 mL of Acetone on ear inside and out. […] Six (6) hours after the modeling, the both side's ear thickness were measured after anesthetized by isoflurane (2-3%), respectively. Ear swelling response was determined by ear thickness measured with a micrometer before challenge and 6 hours after challenge and reported as the mean change in ear thickness (ΔT±S.E.M.). Percent suppression of ear swelling response was calculated as % suppression=[1−(ΔT of sensitized mice exposed to experimental treatment/ΔT of sensitized mice exposed to vehicle treatment)]×100.

[2] = Approximate solubility of Zileuton in various solvents/vehicles; assay type: physicochemical
Method: Solubility of Zileuton in Various Solvents
Approximately solubility of the Zileuton was measured in different vehicles. Semi-soild and waxy solid excipients were melted and tested at 50° C. or 70° C.

Structure (SMILES): C[C@@H]1C[C@H]2[C@@H]3CCC4=CC(=O)C=C[C@]4(C)[C@@]3(F)[C@@H](O)C[C@]2(C)[C@@]1(O)C(=O)CO [Dex, Dexamethasone]
ear swelling (ear swelling response) ([1]; ICR mice, phorbol ester 5 μg/ear, result in words): significant decrease in ear swelling
Suppression Rate: % suppression Vs G1-right ear ([1]; female ICR mice, phorbol ester (PMA) 5 μg/ear, topical treatment, ear thickness 6 hours after challenge, vs vehicle (Acetone) group): 27.14%

solubility ([2]; 25 mM sodium citrate buffer, 25 °C, pH 4, aqueous buffer, vehicle 25 mM sodium citrate buffer solution (pH = 4)): < 5 mg/mL
solubility ([2]; 20% 2-Hydroxypropyl-β-cyclodextrin in water, 25 °C, aqueous with cosolvent or surfactant or cyclodextrin, vehicle 20% 2-Hydroxypropyl-β-cyclodextrin in water): 10 to 16.7 mg/mL (≈ 42.3 to 70.7 mM)
solubility ([2]; 20% Poloxamer 188 in water, 25 °C, aqueous with cosolvent or surfactant or cyclodextrin, vehicle 20% Poloxamer 188 water): < 5 mg/mL
solubility ([2]; 20% Sulfobutylether-β-cyclodextrin in water, 25 °C, aqueous with cosolvent or surfactant or cyclodextrin, vehicle 20% Sulfobutylether-β-cyclodextrin in water): 10 to 16.7 mg/mL (≈ 42.3 to 70.7 mM)
solubility ([2]; 25 °C, pH 4, aqueous with cosolvent or surfactant or cyclodextrin, vehicle 20% 2-Hydroxypropyl-β-cyclodextrin in pH 4 sodium citrate buffer): 10 to 16.7 mg/mL (≈ 42.3 to 70.7 mM)
solubility ([2]; 25 °C, pH 4, aqueous with cosolvent or surfactant or cyclodextrin, vehicle 20% Sulfobutylether-β-cyclodextrin in pH 4 sodium citrate buffer): 5 to 10 mg/mL (≈ 21.2 to 42.3 mM)
solubility ([2]; Beeswax polyethylene glycol-8, 70 °C, oil or lipid, vehicle Beeswax polyethylene glycol-8, 70° C.): 15.7 to 25 mg/mL (≈ 66.4 to 106 mM)
solubility ([2]; Caprylic glycerides, 50 °C, oil or lipid, vehicle Caprylic glycerides): 18.2 to 28.6 mg/mL (≈ 77 to 121 mM)
solubility ([2]; Caprylocaproyl polyoxyl glycerides, 25 °C, oil or lipid, vehicle Caprylocaproyl polyoxyl glycerides): 40 to 66.7 mg/mL (≈ 169 to 282 mM)
solubility ([2]; Castor oil, 25 °C, oil or lipid, vehicle Castor oil): < 5 mg/mL
solubility ([2]; Corn oil, 25 °C, oil or lipid, vehicle Corn oil): < 5 mg/mL
solubility ([2]; Diethylene glycol monoethyl ether, 25 °C, organic solvent or mixture, vehicle Diethylene glycol monoethyl ether): > 200 mg/mL
solubility ([2]; Dimethyl acetamide, 25 °C, organic solvent or mixture, vehicle Dimethyl acetamide): 66.7 to 100 mg/mL (≈ 282 to 423 mM)
solubility ([2]; Dimethyl formamide, 25 °C, organic solvent or mixture, vehicle Dimethyl formamide): 100 to 200 mg/mL (≈ 423 to 846 mM)
solubility ([2]; Dimethyl sulfoxide, 25 °C, organic solvent or mixture, vehicle Dimethyl sulfoxide): 100 to 200 mg/mL (≈ 423 to 846 mM)
solubility ([2]; Ethanol, 25 °C, organic solvent or mixture, vehicle Ethanol): 40 to 50 mg/mL (≈ 169 to 212 mM)
solubility ([2]; Ethyl oleate, 25 °C, oil or lipid, vehicle Ethyl oleate): < 5 mg/mL
solubility ([2]; Ethylene glycol palmitostearate, 70 °C, oil or lipid, vehicle Ethylene glycol palmitostearate): 50 to 100 mg/mL (≈ 212 to 423 mM)
solubility ([2]; Glycerin, 25 °C, organic solvent or mixture, vehicle Glycerin): < 10 mg/mL
solubility ([2]; Glyceryl mono and di stearate, 70 °C, oil or lipid, vehicle Glyceryl mono and di stearate): 25 to 50 mg/mL (≈ 106 to 212 mM)
solubility ([2]; Glyceryl monocaprate type I, 25 °C, oil or lipid, vehicle Glyceryl monocaprate type I): 8.3 to 12.5 mg/mL (≈ 35.1 to 52.9 mM)
solubility ([2]; Glyceryl monolinoleate, 25 °C, oil or lipid, vehicle Glyceryl monolinoleate): < 5 mg/mL
solubility ([2]; Glyceryl monostearate, 70 °C, oil or lipid, vehicle Glyceryl monostearate): 25 to 50 mg/mL (≈ 106 to 212 mM)
solubility ([2]; Hexylene glycol, 25 °C, organic solvent or mixture, vehicle Hexylene glycol): 25 to 50 mg/mL (≈ 106 to 212 mM)
solubility ([2]; Isopropyl myristate, 25 °C, oil or lipid, vehicle Isopropyl myristate): < 5 mg/mL
solubility ([2]; Lanolin, 70 °C, oil or lipid, vehicle Lanolin): < 5 mg/mL
solubility ([2]; Lauroyl polyoxyl-6 glycerides, 50 °C, oil or lipid, vehicle Lauroyl polyoxyl-6 glycerides): < 10 mg/mL
solubility ([2]; Lauroyl polyoxyl-32 glycerides, 50 °C, oil or lipid, vehicle Lauroyl polyoxyl-32 glycerides): < 10 mg/mL
solubility ([2]; Linoleoyl polyoxyl-6 glycerides, 25 °C, oil or lipid, vehicle Linoleoyl polyoxyl-6 glycerides): < 5 mg/mL
solubility ([2]; Liquid paraffin, 25 °C, oil or lipid, vehicle Liquid paraffin): < 5 mg/mL
solubility ([2]; Medium chain triglycerides, 25 °C, oil or lipid, vehicle Medium chain triglycerides): < 5 mg/mL
solubility ([2]; N-methyl-2-pyrrolidone, 25 °C, organic solvent or mixture, vehicle N-methyl-2-pyrrolidone): > 200 mg/mL
solubility ([2]; Oleic acid, 25 °C, oil or lipid, vehicle Oleic acid): < 5 mg/mL
solubility ([2]; Oleoyl polyoxyl-6 glycerides, 25 °C, oil or lipid, vehicle Oleoyl polyoxyl-6 glycerides): < 5 mg/mL
solubility ([2]; Olive oil, 25 °C, oil or lipid, vehicle Olive oil): < 5 mg/mL
solubility ([2]; Paraffin, 70 °C, oil or lipid, vehicle Paraffin): < 5 mg/mL
solubility ([2]; Peceol, 25 °C, oil or lipid, vehicle Peceol): < 5 mg/mL
solubility ([2]; Poly-oxyethylene esters of 12-hydroxystearic acid, 50 °C, organic solvent or mixture, vehicle Poly-oxyethylene esters of 12-hydroxystearic acid): 40 to 100 mg/mL (≈ 169 to 423 mM)
solubility ([2]; Polyethylene glyco-40 hydrogenated castor oil, 50 °C, organic solvent or mixture, vehicle Polyethylene glyco-40 hydrogenated castor oil): 22.2 to 28.6 mg/mL (≈ 93.9 to 121 mM)
solubility ([2]; Polyethylene glycol 200, 25 °C, organic solvent or mixture, vehicle Polyethylene glycol 200, 25° C.): 50 to 66.7 mg/mL (≈ 212 to 282 mM)
solubility ([2]; Polyethylene glycol 300, 25 °C, organic solvent or mixture, vehicle Polyethylene glycol 300, 25° C.): 40 to 66.7 mg/mL (≈ 169 to 282 mM)
solubility ([2]; Polyethylene glycol 400, 25 °C, organic solvent or mixture, vehicle Polyethylene glycol 400, 25° C.): 40 to 66.7 mg/mL (≈ 169 to 282 mM)
solubility ([2]; Polyethylene glycol 1500, 70 °C, organic solvent or mixture, vehicle Polyethylene glycol 1500, 70° C.): 50 to 100 mg/mL (≈ 212 to 423 mM)
solubility ([2]; Polyethylene glycol 3350, 70 °C, organic solvent or mixture, vehicle Polyethylene glycol 3350, 70° C.): 25 to 50 mg/mL (≈ 106 to 212 mM)
solubility ([2]; Polyethylene glycol 6000, 70 °C, organic solvent or mixture, vehicle Polyethylene glycol 6000, 70° C.): 25 to 50 mg/mL (≈ 106 to 212 mM)
solubility ([2]; Polyethylene glycol octadecyl ether, 25 °C, organic solvent or mixture, vehicle Polyethylene glycol octadecyl ether): 10 to 11.1 mg/mL (≈ 42.3 to 47 mM)
solubility ([2]; Polyethylene glycol sorbitan monolaurate, 25 °C, organic solvent or mixture, vehicle Polyethylene glycol sorbitan monolaurate): 12.5 to 14.3 mg/mL (≈ 52.9 to 60.5 mM)
solubility ([2]; Polyoxy ethylene sorbitan monooleate, 25 °C, organic solvent or mixture, vehicle Polyoxy ethylene sorbitan monooleate): 12.5 to 14.3 mg/mL (≈ 52.9 to 60.5 mM)
solubility ([2]; Polyoxy ethylene sorbitan monostearate, 25 °C, organic solvent or mixture, vehicle Polyoxy ethylene sorbitan monostearate): 33.3 to 50 mg/mL (≈ 141 to 212 mM)
solubility ([2]; Polyoxyl 35 hydrogenated castor oil, 25 °C, organic solvent or mixture, vehicle Polyoxyl 35 hydrogenated castor oil): 12.5 to 14.3 mg/mL (≈ 52.9 to 60.5 mM)
solubility ([2]; Propylene glycol dicaprylate, 25 °C, oil or lipid, vehicle Propylene glycol dicaprylate): < 5 mg/mL
solubility ([2]; Propylene glycol monocaprylate type II, 25 °C, oil or lipid, vehicle Propylene glycol monocaprylate type II): 12.5 to 25 mg/mL (≈ 52.9 to 106 mM)
solubility ([2]; Propylene glycol monolaurate, 25 °C, oil or lipid, vehicle Propylene glycol monolaurate): 8.3 to 12.5 mg/mL (≈ 35.1 to 52.9 mM)
solubility ([2]; Propylene glycol, 25 °C, organic solvent or mixture, vehicle Propylene glycol): 40 to 66.7 mg/mL (≈ 169 to 282 mM)
solubility ([2]; Sorbitan monolaurate, 25 °C, oil or lipid, vehicle Sorbitan monolaurate): < 5 mg/mL
solubility ([2]; Sorbitane monooleate, 25 °C, oil or lipid, vehicle Sorbitane monooleate): < 5 mg/mL
solubility ([2]; Triethanolamine, 25 °C, organic solvent or mixture, vehicle Triethanolamine): < 10 mg/mL
solubility ([2]; Water, 25 °C, vehicle Water): < 5 mg/mL
solubility ([2]; White vaseline, 70 °C, oil or lipid, vehicle White vaseline): < 5 mg/mL
solubility ([2]; White wax, 70 °C, oil or lipid, vehicle White wax): < 5 mg/mL
solubility ([2]; d-a-tocopheryl polyethylene glycol 1000 succinate, 50 °C, oil or lipid, vehicle d-a-tocopheryl polyethylene glycol 1000 succinate): < 10 mg/mL
Structure (SMILES): CC(c1cc2ccccc2s1)N(O)C(N)=O (racemic) [Zileuton, (±)-1-(1-(benzo[b]thiophen-2-yl)ethyl)-1-hydroxyurea]

Reference: US12582598B2, “Topical anti-inflammatory pharmaceutical composition comprising Zileuton” (QURIENT CO., LTD., priority 2019, dated 2026)
